The values below come from patent US12503456B2, “Substituted pyrimidines and 1,3,5-triazines as RHOJ inhibitors” (Fondazione Istituto Italiano Di Tecnologia, priority 2017, dated 2025).

Common to all, as to type: cell-based
In one assay the test system is melanoma cells. As to the kind of experiment: Cell viability assay (Cell Titer-Glo), inhibitor alone or with Cisplatin. On the procedure:
Cells were seeded at 10,000 cells/well in 96-well plates and incubated for 24 h at 37° C. with 5% CO2. […] The cell viability was determined using the Cell Titer-Glo luminescent cell viability assay kit (Promega, Madison, WI), according to the manufacturer's instructions. Luminescence was measured using a DTX 800 microplate reader (Coulter). The half-maximal inhibitory concentration (IC50) values were calculated using the GraphPad Prism software. The assay was done by conducting 3 independent experiments.

In the next assay the test system is WM3248 melanoma cells. Nature of the assay: Flow cytometric analyses for apoptosis (Annexin V and PI). The conditions noted are these: 24 hours, FIG. 1. On the procedure:
Approximately 1×10^6 melanoma cells treated with inhibitors for 24 hours and were then trypsinized and washed with PBS, the single-cell suspensions were incubated with Alexa Fluor-Annexin V and propidium iodide (PI) (V13245; Invitrogen) per the manufacturer's protocol and were subjected to flow cytometric analysis. In all cases, cell debris was gated out on the basis of forward scatter and side scatter analysis. Data was analyzed using FlowJo (Ashland, OR). Results are illustrated in FIG. 1, wherein WM3248 melanoma cells were treated with the indicated doses of compound 1 (ARN12405) and apoptosis was measured by flow cytometry using Annexin V and PI.
(Flow cytometry measures light scatter and fluorescence of single cells or particles in a stream.)

In a further assay the target is T1, RhoJ PAK interaction (Homo sapiens, UniProt Q9H4E5).
T1 construct: host or cells: WM3248 cells
T1 sequence (Q9H4E5 1-211 limits assumed): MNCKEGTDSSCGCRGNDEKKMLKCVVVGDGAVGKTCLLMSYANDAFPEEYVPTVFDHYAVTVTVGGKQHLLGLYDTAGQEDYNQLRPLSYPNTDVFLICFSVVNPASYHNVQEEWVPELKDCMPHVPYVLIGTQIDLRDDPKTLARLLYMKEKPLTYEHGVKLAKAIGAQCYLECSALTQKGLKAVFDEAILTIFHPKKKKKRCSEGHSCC
Nature of the assay: Cdc42 activation assay (PAK1 PBD bead pull-down, immunoblot). The conditions noted are these: cell lysates from WM3248 cells, PAK coupled beads, FIG. 2. On the procedure: A Cdc42 activation assay was performed according the manufacturer's protocol (Cell Biolabs, San Diego, CA). Briefly, cells treated with the inhibitor were lysed and either loaded with GDP or GTPyS. Agarose beads conjugated with the PAK1 PBD domain pulled down Cdc42, Rac1, or RhoJ only when GTP-bound. Lysates were then immunoblotted with indicated Abs. Results are illustrated in FIG. 2. […] Briefly, cells were treated with compound 1 (ARN12405) and cell lysates were prepared and incubated with PAK coupled beads. Immunoprecipitated proteins were subjected to SDS PAGE and immunoblotted with a (A) RhoJ antibody, (B) Cdc42 antibody, (C) Rac1 antibody, (D) Cells were treated with one of a panel of RhoJ interaction inhibitors at a concentration of 10 μm or 50 μm (see FIG. 2, panels A-D). Lysates were prepared, incubated with PAK coupled beads, and immunoprecipitated proteins were immunoblotted with a RhoJ antibody.
(In western blotting, separated proteins are transferred to a membrane and probed.)

[1] abbreviates: inhibitor (1.25-50 μM) with Cisplatin at 20 μM, 24 hours, Cell Titer-Glo, 3 independent experiments, read-out: IC50 (CisPt).

Where two headings read alike, the source gives them in different places. A value given as a limit tells only on which side of the number the result lay.

As for `Clc1ccc(Nc2cc(-c3ccncc3)nc(C3CCCNC3)n2)cc1` (stereo not shown) [Compound 1], the half-inhibitory concentration (IC50) in the assay with melanoma cells (setting [1]) stood at 12.8 µM. Besides, in the assay on WM3248 melanoma cells, the “apoptosis measured by flow cytometry using AnnexinV and PI” value is on record as “apoptosis induced”. For the same molecule, the “RhoJ PAK interaction in cell lysates (SDS PAGE and immunoblotting)” value on RhoJ PAK interaction was “block of RhoJ PAK interaction”.
As to `Clc1ccc(Nc2cc(-c3cccnc3)nc(C3CCCNC3)n2)cc1` (stereo not shown) [Compound 2], in the assay on melanoma cells (setting [1]), the IC50 was 11.5 µM.
The same measure, in the same setting: the value for `Clc1ccc(Nc2cc(-c3ccccn3)nc(C3CCCNC3)n2)cc1` (stereo not shown) [Compound 3] was 38.2 µM; that for `Clc1ccc(Nc2cc(-c3ccccc3)nc(C3CCCNC3)n2)cc1` (stereo not shown) [Compound 4] was 7 µM.
The same measure, in the same setting: next, `Clc1cccc(Nc2cc(-c3ccncc3)nc(C3CCCNC3)n2)c1` (stereo not shown) [Compound 5]: 42.3 µM; `COc1ccc(-c2cc(Nc3ccc(Cl)cc3)nc(C3CCCNC3)n2)cc1` (stereo not shown) [Compound 6]: 17 µM; `Fc1ccc(-c2cc(Nc3ccccc3)nc(C3CCCNC3)n2)cc1` (stereo not shown) [Compound 7]: 32 µM.
Turning to `CN(C)c1ccc(Nc2cc(-c3ccccc3)nc(C3CCCNC3)n2)cc1` (stereo not shown) [Compound 8, N1,N1-dimethyl-N4-[6-phenyl-2-(3-piperidyl)pyrimidin-4-yl]benzene-1,4-diamine], in the assay on melanoma cells (setting [1]), the concentration for half-maximal inhibition (IC50) worked out at 31.4 µM.
Consider `COc1ccc(Nc2cc(-c3ccccc3)nc(C3CCCNC3)n2)cc1` (stereo not shown) [Compound 9, N-(4-methoxyphenyl)-6-phenyl-2-(3-piperidyl)pyrimidin-4-amine], for which the IC50 was more than 50 µM with melanoma cells (24 h, read-out: IC50 (alone)) and more than 50 µM in the assay on melanoma cells (setting [1]).
For `CN(C)c1cccc(Nc2cc(-c3ccccc3)nc(C3CCCNC3)n2)c1` (stereo not shown) [Compound 10, N3,N3-dimethyl-N1-[6-phenyl-2-(3-piperidyl)pyrimidin-4-yl]benzene-1,3-diamine], in the assay with melanoma cells (24 h, read-out: IC50 (alone)), the 50% inhibitory concentration (IC50) stood at 45 µM.
Take `COc1cccc(Nc2cc(-c3ccccc3)nc(C3CCCNC3)n2)c1` (stereo not shown) [Compound 11, N-(3-methoxyphenyl)-6-phenyl-2-(3-piperidyl)pyrimidin-4-amine]: in the assay with melanoma cells (setting [1]), the IC50 came out at 27.8 µM.
On to `CN(C)c1ccc(Nc2cc(-c3ccccc3)nc(C3CCNCC3)n2)cc1` [Compound 12, N4,N4-dimethyl-N1-[6-phenyl-2-(4-piperidyl)pyrimidin-4-yl]benzene-1,4-diamine], for which, in the assay with melanoma cells (24 h, read-out: IC50 (CisPt)), the concentration for half-maximal inhibition (IC50) was determined as 86.3 µM.
As for `COc1ccc(Nc2cc(-c3ccccc3)nc(C3CCNCC3)n2)cc1` [Compound 13, N-(4-methoxyphenyl)-6-phenyl-2-(4-piperidyl)pyrimidin-4-amine], the half-inhibitory concentration (IC50) with melanoma cells (setting [1]) came out at 36.7 µM.
Still for that read-out and setting: next, `CN(C)c1cccc(Nc2cc(-c3ccccc3)nc(C3CCNCC3)n2)c1` [Compound 14, N3,N3-dimethyl-N1-[6-phenyl-2-(4-piperidyl)pyrimidin-4-yl]benzene-1,3-diamine]: 17.2 µM; `COc1cccc(Nc2cc(-c3ccccc3)nc(C3CCNCC3)n2)c1` [Compound 15, N-(3-methoxyphenyl)-6-phenyl-2-(4-piperidyl)pyrimidin-4-amine]: 22.2 µM.
In the case of `CN(C)c1ccc(Nc2cc(-c3ccccc3)nc(C3CCOCC3)n2)cc1` [Compound 16, N4,N4-dimethyl-N1-(6-phenyl-2-tetrahydropyran-4-yl-pyrimidin-4-yl)benzene-1,4-diamine], the IC50 with melanoma cells (24 h, read-out: IC50 (alone)) is more than 50 µM; in the assay with melanoma cells (setting [1]), more than 50 µM.
Regarding `COc1ccc(Nc2cc(-c3ccccc3)nc(C3CCOCC3)n2)cc1` [Compound 17, N-(4-methoxyphenyl)-6-phenyl-2-tetrahydropyran-4-yl-pyrimidin-4-amine], the concentration for half-maximal inhibition (IC50) was more than 50 µM in the assay on melanoma cells (24 h, read-out: IC50 (alone)) and more than 50 µM with melanoma cells (setting [1]).

By IC50 is commonly meant the concentration that inhibits the measured activity by half.
